Target: Proprotein convertase subtilisin/kexin type 9 (Homo sapiens, UniProt Q8NBP7)
Experiment: In Vitro Screening Experiment: 1. […] Data Analysis:Date was analyzed with Prismsoftware (nonlinear regression (Sigmoidal dose-response-variable slope)Inhibition ratio %=100*(Sample reading−LC reading)/(HC reading−LC reading).

Sequence of Proprotein convertase subtilisin/kexin type 9 (Q8NBP7 31-152 limits assumed): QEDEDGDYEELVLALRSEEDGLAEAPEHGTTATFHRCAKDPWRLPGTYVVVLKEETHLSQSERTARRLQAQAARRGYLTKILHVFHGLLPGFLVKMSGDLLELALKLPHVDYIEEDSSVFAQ
Sequence of Proprotein convertase subtilisin/kexin type 9 (Q8NBP7 153-692 limits assumed): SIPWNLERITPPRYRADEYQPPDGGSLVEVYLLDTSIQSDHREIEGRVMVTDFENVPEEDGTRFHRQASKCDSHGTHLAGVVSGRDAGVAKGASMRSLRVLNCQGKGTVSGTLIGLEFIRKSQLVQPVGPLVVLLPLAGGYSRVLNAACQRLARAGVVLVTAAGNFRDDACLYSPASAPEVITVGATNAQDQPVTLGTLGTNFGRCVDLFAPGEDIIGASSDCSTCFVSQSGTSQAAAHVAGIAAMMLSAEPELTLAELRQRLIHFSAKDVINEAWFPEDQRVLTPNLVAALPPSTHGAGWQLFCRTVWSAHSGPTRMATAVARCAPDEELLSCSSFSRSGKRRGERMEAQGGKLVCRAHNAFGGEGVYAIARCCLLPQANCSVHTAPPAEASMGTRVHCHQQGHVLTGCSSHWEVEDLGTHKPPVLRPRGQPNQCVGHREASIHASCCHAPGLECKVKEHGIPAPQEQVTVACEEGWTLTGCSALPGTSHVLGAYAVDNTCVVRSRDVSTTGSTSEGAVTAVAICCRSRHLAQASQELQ

IC50, < 10 µM:
CCc1cccnc1N(C(=O)c1ccc(C2=NOC(C)(C)C2=O)cc1)[C@@H]1CCCNC1
Cc1cccnc1N(C(=O)c1ccc(C2=NOC(C)(C)C2(C)O)cc1)[C@@H]1CCCNC1 (some centres not stated)
CC1(C)ON=C(c2ccc(C(=O)N(c3nccc4ccccc34)[C@@H]3CCCNC3)cc2)C1=O
CC1(C)ON=C(c2ccc(C(=O)N(c3ncccc3C3CC3)[C@@H]3CCCNC3)cc2)C1=O
COC1C(c2ccc(C(=O)N(c3ncccc3Cl)[C@@H]3CCCNC3)cc2)=NOC1(C)C (some centres not stated)
Cc1cccnc1N(C(=O)c1ccc(C2=NOC(C)(C)C2=O)cn1)[C@@H]1CCCNC1
COCCOC1C(c2ccc(C(=O)N(c3ncccc3C)[C@@H]3CCCNC3)cc2)=NOC1(C)C (some centres not stated)

— ChEMBL document CHEMBL5727468, “Piperidine compounds as PCSK9 inhibitors” (2019)
